Assay results taken from ChEMBL document CHEMBL1125996, “Avermectin analogs with a spacer between the aglycone and the disaccharide” (1991).

system: Artemia salina; assay: Compound was tested for its inhibitory activity using brine shrimp (Artemia salina) immobilization assay; highest level tested, showed <100% activity; format: functional

`CC[C@H](C)[C@H]1O[C@]2(CC[C@@H]1C)C[C@@H]1C[C@@H](C/C=C(\C)[C@@H](OC(=O)OCCO[C@H]3C[C@H](OC)[C@@H](O[C@H]4C[C@H](OC)[C@@H](O)[C@H](C)O4)[C@H](C)O3)[C@@H](C)/C=C/C=C3\CO[C@@H]4[C@H](O)C(C)=C[C@@H](C(=O)O1)[C@]34O)O2` was tested, and the IC100 was >55500 ng/mL.

system: Artemia salina; assay: Compound was tested for its inhibitory activity using brine shrimp (Artemia salina) immobilization assay; format: functional

In order of falling IC100:
1. CC[C@H](C)[C@H]1O[C@]2(CC[C@@H]1C)C[C@@H]1C[C@@H](C/C=C(\C)[C@@H](OC(=O)OCCO[C@@H]3C[C@H](OC)[C@@H](O[C@H]4C[C@H](OC)[C@@H](O)[C@H](C)O4)[C@H](C)O3)[C@@H](C)/C=C/C=C3\CO[C@@H]4[C@H](O)C(C)=C[C@@H](C(=O)O1)[C@]34O)O2  41650 ng/mL
2. CC[C@H](C)[C@H]1O[C@]2(CC[C@@H]1C)C[C@@H]1C[C@@H](C/C=C(\C)[C@@H](OCOCCO[C@@H]3C[C@H](OC)[C@@H](O[C@H]4C[C@H](OC)[C@@H](O)[C@H](C)O4)[C@H](C)O3)[C@@H](C)/C=C/C=C3\CO[C@@H]4[C@H](O)C(C)=C[C@@H](C(=O)O1)[C@]34O)O2  27800 ng/mL
3. CC[C@H](C)[C@H]1O[C@]2(CC[C@@H]1C)C[C@@H]1C[C@@H](C/C=C(\C)[C@@H](OCOCCO[C@H]3C[C@H](OC)[C@@H](O[C@H]4C[C@H](OC)[C@@H](O)[C@H](C)O4)[C@H](C)O3)[C@@H](C)/C=C/C=C3\CO[C@@H]4[C@H](O)C(C)=C[C@@H](C(=O)O1)[C@]34O)O2  27800 ng/mL
4. CC[C@H](C)[C@H]1O[C@]2(CC[C@@H]1C)C[C@@H]1C[C@@H](C/C=C(\C)[C@@H](OCCO[C@H]3C[C@H](OC)[C@@H](O[C@H]4C[C@H](OC)[C@@H](O)[C@H](C)O4)[C@H](C)O3)[C@@H](C)/C=C/C=C3\CO[C@@H]4[C@H](O)C(C)=C[C@@H](C(=O)O1)[C@]34O)O2  1730 ng/mL
5. CC[C@H](C)[C@H]1O[C@]2(CC[C@@H]1C)C[C@@H]1C[C@@H](C/C=C(\C)[C@@H](OCCO[C@@H]3C[C@H](OC)[C@@H](O[C@H]4C[C@H](OC)[C@@H](O)[C@H](C)O4)[C@H](C)O3)[C@@H](C)/C=C/C=C3\CO[C@@H]4[C@H](O)C(C)=C[C@@H](C(=O)O1)[C@]34O)O2  1730 ng/mL
6. CC[C@H](C)[C@H]1O[C@]2(C=C[C@@H]1C)C[C@@H]1C[C@@H](C/C=C(\C)[C@@H](O[C@H]3C[C@H](OC)[C@@H](O[C@H]4C[C@H](OC)[C@@H](O)[C@H](C)O4)[C@H](C)O3)[C@@H](C)/C=C/C=C3\CO[C@@H]4[C@H](O)C(C)=C[C@@H](C(=O)O1)[C@]34O)O2 [ABAMECTIN COMPONENT B1A]  430 ng/mL
